Experimental data: patent US20230056135A1, “MONOMER AND MULTIMERIC ANTI-HBV AGENTS” (priority 2018, published 2023)
Like-named read-outs stand apart in the source and are kept apart here.

Assays:
Type in all cases: cell-based
wild type HBV = experiment: Anti-HBV assay in AD-38 cell line (HBV in culture supernatant); settings: AD-38 cell line, Tet (-); for EC50: read-out: Anti-HBV activity EC50; for EC90: read-out: Anti-HBV activity EC90
Method: The anti-HBV activity of the compounds was determined by treating the AD-38 cell line carrying wild type HBV under the control of tetracycline (see Ladner S. K., Otto M. J., Barker C. S., Zaifert K., Wang G. H., Guo J. T., Seeger C. & King R. W. Antimicrob. Agents Chemother. 1997, 41, 1715-20). Removal of tetracycline from the medium [Tet (−)] results in the production of HBV. The levels of HBV in the culture supernatant fluids from cells treated with the compounds were compared with that of the untreated controls. Control cultures with tetracycline [Tet (+)] were also maintained to determine the basal levels of HBV expression. 3TC was included as positive control.
The median effective concentrations (EC50) ranges of several of the compounds described herein against HBV are shown in Table 3: […]

Vero = experiment: Cellular toxicity assay in Vero cells
Method: (§1) The toxicity of the compounds was assessed in Vero, human PBM, CEM (human lymphoblastoid), MT-2, and HepG2 cells, as described previously (see Schinazi R. F., Sommadossi J.-P., Saalmann V., Cannon D. L., Xie M.-Y., Hart G. C., Smith G. A. & Hahn E. F. Antimicrob. Agents Chemother. 1990, 34, 1061-67). Cycloheximide was included as positive cytotoxic control, and untreated cells exposed to solvent were included as negative controls. The cytotoxicity IC50 was obtained from the concentration-response curve using the median effective method described previously (see Chou T.-C. & Talalay P. Adv. Enzyme Regul. 1984, 22, 27-55; Belen'kii M. S. & Schinazi R. F. Antiviral Res. 1994, 25, 1-11).

human PBM = experiment: Cellular toxicity assay in human PBM cells
Method: as §1

HepG2 cells = experiment: Cellular toxicity assay in HepG2 cells
Method: as §1

[1] = tested on: CEM (human lymphoblastoid); experiment: Cellular toxicity assay in CEM cells
Method: as §1

[2] = tested on: HBV replication in HepAD38 cells; experiment: Drug-drug combination, inhibition of HBV replication in HepAD38 cells
[3] = Cytotoxicity (rDNA) in HepG2-NTCP infectious system; settings: human, HepG2-NTCP (Clone 7) cells infected with HBV, day 11, read-out: HBV DNA/rDNA CC50
Method: (§2) Antiviral Activity in HepG2-NTCP Infectious System: HepG2-NTCP (Clone 7) cells were pretreated with antivirals for 30 min prior infection for 24 h with stock concentrated virus produced from HepAD38 at a dose of ˜300 virus genome equivalent (VGE) per cell in the presence of media containing 4% polyethylene glycol 8000 (PEG) and 2% DMSO. After 24 h, virus inoculum with or without antiviral agents were washed out from cells and media in the presence of 4% PEG and 2% DMSO, with or without antiviral agents were replenished every two days until day 11. Cells and supernatants were harvested and tested for intracellular HBV DNA, pregenomic (pg) RNA, surface RNA, and secreted HBeAg (ELISA).

HBV = experiment: Antiviral activity in HepG2-NTCP infectious system; settings: Hepatitis B virus, 264 h
Method: as §2

Glutathione levels (GSH) = experiment: Glutathione levels in Huh7 cells (GSH-Glo Glutathione Assay)
Method: Glutathione levels (GSH) were measured in Huh7 cells after 22 h treatment with 10 μM CAMs (GSH-Glo™ Glutathione Assay—Promega). Treatment of Huh7 with 10 μM positive control, L-buthionine-sulfoximine, reduced cellular GSH levels by 58% (data not shown); Samples were tested in triplicates.

[4] = Cellular toxicity assay in human PBM cells; settings: human, human PBM cells; read-out: Cytotoxicity; CC50 (μM) PBM
Method: as §1

[5] = Cellular toxicity assay in HepG2 cells; settings: human, HepG2 cells; read-out: Cytotoxicity; CC50 (μM) HepG2
Method: as §1

[6] = Vero cells, read-out: Cytotoxicity, CC50 (μM) VERO
[7] = human PBM cells, read-out: Cytotoxicity, CC50 (μM) PBM
[8] = HepG2 cells, read-out: Cytotoxicity, CC50 (μM) HepG2
[9] = CEM cells, read-out: Cytotoxicity, CC50 (μM) CEM
[10] = read-out: HBV DNA/rDNA EC50 (nM)
[11] = read-out: HBV RNA EC50, nM pgRNA
[12] = read-out: HBV RNA EC50, nM sRNA

Row | SMILES | EC50 (wild type HBV) [nM] | EC90 (wild type HBV) [nM] | CC50 (Vero; [6]) [µM] | CC50 (human PBM; [7]) [µM] | CC50 (HepG2 cells; [8]) [µM] | CC50 [1, 9] [µM] | CC50 (Vero) [µM] | CC50 (human PBM) [µM] | CC50 (HepG2 cells) [µM] | CC50 [1] [µM] | CC50 at 11 days [3] [nM] | EC50 (HBV; [10]) [nM] | EC50 (HBV; [11]) [nM] | EC50 (HBV; [12]) [nM] | EC50 (HBV; read-out: HBeAg EC50, nM) [nM] | other results
1 | Cc1c(C(=O)C(=O)NCc2cn(CCCCCCCCn3cc(CNC(=O)C(=O)c4c(C)c(C(=O)Nc5ccc(F)c(F)c5)n(C)c4C)nn3)nn2)c(C)n(C)c1C(=O)Nc1ccc(F)c(F)c1 [Compound 9, 4,4′-(2,2′-(((Octane-1,8-diylbis(1H-1,2,3-triazole-1,4-diyl))bis(methylene))bis(azanediyl))bis(2-oxoacetyl))bis(N-(3,4-difluorophenyl)-1,3,5-trimethyl-1H-pyrrole-2-carboxamide)] | 100 to 1000 | 1000 to 10000 | > 100 | 26.4 | > 100 | > 100 | – | – | – | – | – | – | – | – | – | –
2 | Cc1c(C(=O)C(=O)NCc2cn(CCCCCCCCCCCCn3cc(CNC(=O)C(=O)c4c(C)c(C(=O)Nc5ccc(F)c(F)c5)n(C)c4C)nn3)nn2)c(C)n(C)c1C(=O)Nc1ccc(F)c(F)c1 [Compound 53, 4,4′-(2,2′-(((Dodecane-1,12-diylbis(1H-1,2,3-triazole-1,4-diyl))bis(methylene))bis(azanediyl))bis(2-oxoacetyl))bis(N-(3,4-difluorophenyl)-1,3,5-trimethyl-1H-pyrrole-2-carboxamide)] | 0.1 to 1 | 10 to 100 | > 100 | 35 | > 100 | 45 | – | – | – | – | – | – | – | – | – | EC50 ([2]; HepAD38 cells, combinations at ratio 1:1, read-out: EC50): 0.02 nM; EC90 ([2]; HepAD38 cells, combinations at ratio 1:1, read-out: EC90): 5.29 nM
3 | O=C(NC(Br)=C(C(=O)N1CCCCC1)c1ccccc1OCCCCCCCCCCCCOc1ccccc1C(C(=O)N1CCCCC1)=C(Br)NC(=O)c1ccc([N+](=O)[O-])cc1)c1ccc([N+](=O)[O-])cc1 [Compound 28] | 1000 to 10000 | – | – | – | – | – | > 100 | > 100 | > 100 | > 100 | – | – | – | – | – | –
4 | CCOC(=O)C1=C(CNCc2cn(CCCCCCCCn3cc(CNC(=O)C(=O)c4c(C)c(C(=O)Nc5ccc(F)c(F)c5)n(C)c4C)nn3)nn2)NC(c2nccs2)=NC1c1ccc(F)cc1Br (stereo not drawn) [Compound 20, Ethyl 4-(2-bromo-4-fluorophenyl)-6-((((1-(8-(4-((2-(5-((3,4-difluorophenyl)-carbamoyl)-1,2,4-trimethyl-1H-pyrrol-3-yl)-2-oxoacelamido)methyl)-1H-1,2,3-triazol-1-yl)octyl)-1H-1,2,3-triazol-4-yl)methyl)amino)methyl)-2-(thiazol-2-yl)-1,4-dihydropyrimidine-5-carboxylate] | 10 to 100 | 1000 to 10000 | – | – | – | – | > 100 | 33 | > 100 | > 100 | – | – | – | – | – | –
5 | C=C1[C@H](CO)[C@@H](O)C[C@@H]1n1cnc2c(=O)[nH]c(N)nc21 [ETV, Entecavir, reference compound] | – | – | – | – | – | – | – | – | – | – | > 1000 | < 1 | > 1000 | > 1000 | > 1000 | EC50 ([2]; Hepatitis B virus, HePAD38): 0.04 nM; EC90 ([2]; Hepatitis B virus, HePAD38): 12.9 nM
6 | C#CCNC(=O)C(=O)c1c(C)c(C(=O)Nc2ccc(F)c(F)c2)n(CC#C)c1C [Compound 114, N-(3,4-Difluorophenyl)-3,5-dimethyl-4-(2-oxo-2-(prop-2-yn-1-ylamino)acetyl)-1-(prop-2-yn-1-yl)-1H-pyrrole-2-carboxamide] | – | – | – | – | – | – | – | – | – | – | > 1000 | 0.6 | 79.6 | 67.8 | 488 | GSH levels relative to untreated control (Glutathione levels (GSH); 22 h treatment): > 10 µM; inhibition at 10 µM (Glutathione levels (GSH); Homo sapiens, Huh-7, read-out: GSH levels relative to untreated control (% inhibition at 10 μM), 22 h, 10 μM): 27%; EC50 (wild type HBV; Hepatitis B virus): 0.1 to 1 nM; CC50 [4]: > 100 µM; CC50 [5]: > 100 µM
